According to US9260439B2, “Dihydropyrrolopyrimidine derivatives” (PFIZER INC., priority 2014, dated 2016):

These compounds were tested against truncated PI3Kα (p110α/iSH2 p85α) (Homo sapiens (Human), UniProt P42336) (assay: PI3KA_Act fluorescence polarization kinase assay (Ki)). Details: 1 mM ATP.
Assay type: biochemical
Method in brief: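 Ki values result from fitting fluorescence polarization signals to the Morrison equation for tight-binding competitive inhibitors. The detector was GST-Grp1 PH domain with TAMRA-PIP3, read after a 30 min room-temperature reaction of 0.5 nM truncated PI3Kα and 30 μM PIP2 at pH 7.4 in HEPES/NaCl/MgCl2/DTT/CHAPS buffer. Compounds were tested as 12-point 3-fold dilutions from 3 μM.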

Sequence of truncated PI3Kα (p110α/iSH2 p85α) (P42336 whole entry, the tested form may be a part): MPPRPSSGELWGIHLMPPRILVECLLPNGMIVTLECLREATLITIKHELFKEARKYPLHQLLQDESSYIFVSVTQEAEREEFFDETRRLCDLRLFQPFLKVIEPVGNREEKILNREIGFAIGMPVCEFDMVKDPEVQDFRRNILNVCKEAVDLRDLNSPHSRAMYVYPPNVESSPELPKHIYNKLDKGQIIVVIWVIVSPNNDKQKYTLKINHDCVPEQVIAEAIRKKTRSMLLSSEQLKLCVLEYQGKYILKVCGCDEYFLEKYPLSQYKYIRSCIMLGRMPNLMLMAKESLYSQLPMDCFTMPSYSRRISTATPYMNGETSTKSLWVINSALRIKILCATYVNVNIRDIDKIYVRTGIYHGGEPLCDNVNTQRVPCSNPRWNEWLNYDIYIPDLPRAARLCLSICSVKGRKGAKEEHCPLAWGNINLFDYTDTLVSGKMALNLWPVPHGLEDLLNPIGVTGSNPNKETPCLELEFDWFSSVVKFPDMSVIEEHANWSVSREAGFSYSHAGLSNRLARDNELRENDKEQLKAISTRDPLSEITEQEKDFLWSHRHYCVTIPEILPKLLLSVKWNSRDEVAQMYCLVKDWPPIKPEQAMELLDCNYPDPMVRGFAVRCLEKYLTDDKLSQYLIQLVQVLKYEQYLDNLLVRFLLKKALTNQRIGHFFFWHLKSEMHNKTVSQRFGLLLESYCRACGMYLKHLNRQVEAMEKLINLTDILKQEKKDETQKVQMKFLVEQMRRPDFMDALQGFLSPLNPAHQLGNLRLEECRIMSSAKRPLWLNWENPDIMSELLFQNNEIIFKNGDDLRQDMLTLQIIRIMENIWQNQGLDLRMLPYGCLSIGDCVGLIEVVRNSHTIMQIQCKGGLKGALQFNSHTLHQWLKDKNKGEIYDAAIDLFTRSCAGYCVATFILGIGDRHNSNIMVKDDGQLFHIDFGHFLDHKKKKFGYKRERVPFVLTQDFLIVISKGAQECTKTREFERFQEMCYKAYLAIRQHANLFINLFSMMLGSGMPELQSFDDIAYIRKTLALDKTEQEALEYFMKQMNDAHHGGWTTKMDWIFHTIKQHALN

| Structure (SMILES) | PI3KA_Act Ki | Ki |
| --- | --- | --- |
| C[C@H]1COCCN1c1nc(-c2cnc(N)nc2)c2c(n1)N([C@@]1(C)CCN(C(=O)C3(CN)CC3)C1)CC2.Cl [Example 493, [1-(aminomethyl)cyclopropyl][(3S)-3-{4-(2-aminopyrimidin-5-yl)-2-[(3S)-3-methylmorpholin-4-yl]-5,6-dihydro-7H-pyrrolo[2,3-d]pyrimidin-7-yl}-3-methylpyrrolidin-1-yl]methanone hydrochloride] | 0.061 nM |  |
| [2H]C1([2H])CN(c2nc(-c3cnc(N)nc3)c3c(n2)N([C@@]2(C)CCN(C(=O)OC(C)(C)C)C2)CC3)CC([2H])([2H])O1 [Example 239] |  | < 0.018 nM |
| C[C@@]1(N2CCc3c(-c4cnc(N)nc4)nc(N4CCOCC4)nc32)CCN(S(C)(=O)=O)C1 [Example 150] | 0.044 nM |  |
| CC(C)(C)OC(=O)N1CCC1C(=O)N1CC[C@](C)(N2CCc3c(-c4cnc(N)nc4)nc(N4CCOCC4)nc32)C1 (stereo partly drawn) [Example 358, tert-butyl 2-({(3S)-3-[4-(2-aminopyrimidin-5-yl)-2-(morpholin-4-yl)-5,6-dihydro-7H-pyrrolo[2,3-d]pyrimidin-7-yl]-3-methylpyrrolidin-1-yl}carbonyl)azetidine-1-carboxylate] | 0.171 nM |  |
| CC(C)(O)CN1CC[C@](C)(N2CCc3c(-c4cnc(N)nc4)nc(N4CCOCC4)nc32)C1 [Example 422, 1-{(3S)-3-[4-(2-aminopyrimidin-5-yl)-2-(morpholin-4-yl)-5,6-dihydro-7H-pyrrolo[2,3-d]pyrimidin-7-yl]-3-methylpyrrolidin-1-yl}-2-methylpropan-2-ol] | 0.415 nM |  |
| CC1(C(=O)N2CC[C@@](C)(N3CCc4c(-c5cnc(N)nc5)nc(N5CCOCC5)nc43)C2)CC1 [Example 330, {(3R)-3-[4-(2-aminopyrimidin-5-yl)-2-(morpholin-4-yl)-5,6-dihydro-7H-pyrrolo[2,3-d]pyrimidin-7-yl]-3-methylpyrrolidin-1-yl}(1-methylcyclopropyl) methanone] | 0.152 nM |  |
| CN1CC(C(=O)N2CC[C@](C)(N3CCc4c(-c5cnc(N)nc5)nc(N5CCOCC5)nc43)C2)C1 [Example 356, {(3S)-3-[4-(2-aminopyrimidin-5-yl)-2-(morpholin-4-yl)-5,6-dihydro-7H-pyrrolo[2,3-d]pyrimidin-7-yl]-3-methylpyrrolidin-1-yl}(1-methylazetidin-3-yl)methanone] | 0.037 nM |  |
| CC(C)[C@@H](N)C(=O)N1CC[C@H](N2CCc3c(-c4cnc(N)nc4)nc(N4CCOCC4)nc32)C1.Cl [Example 287, (2R)-2-amino-1-{(3S)-3-[4-(2-aminopyrimidin-5-yl)-2-(morpholin-4-yl)-5,6-dihydro-7H-pyrrolo[2,3-d]pyrimidin-7-yl]pyrrolidin-1-yl}-3-methylbutan-1-one hydrochloride] | 0.462 nM |  |
| CC1(C(=O)N2CC[C@](C)(N3CCc4c(-c5cnc(N)nc5)nc(N5CCOCC5)nc43)C2)CC1 [Example 329, {(3S)-3-[4-(2-aminopyrimidin-5-yl)-2-(morpholin-4-yl)-5,6-dihydro-7H-pyrrolo[2,3-d]pyrimidin-7-yl]-3-methylpyrrolidin-1-yl}(1-methylcyclopropyl) methanone] | <0.018 nM |  |
| CS(=O)(=O)N1CC2CC2(N2CCc3c(-c4cnc(N)nc4)nc(N4CCOCC4)nc32)C1 (racemic) [Example 435, 5-{7-[3-(methylsulfonyl)-3-azabicyclo[3.1.0]hex-1-yl]-2-(morpholin-4-yl)-6,7-dihydro-5H-pyrrolo[2,3-d]pyrimidin-4-yl}pyrimidin-2-amine] | 0.132 nM |  |
| CNS(=O)(=O)N1CC(N2CCc3c(-c4cnc(N)nc4)nc(N4CCOCC4)nc32)C1 [Example 147] | 0.064 nM |  |
| C[C@@H]1COCCN1c1nc(-c2cnc(N)nc2)c2c(n1)N([C@@]1(C)CCNC1)CC2 [Example 225] | 4.151 nM |  |
| Cn1cnc(S(=O)(=O)N2CC(N3CCc4c(-c5cnc(N)nc5)nc(N5CCOCC5)nc43)C2)c1 [Example 179] | 0.344 nM |  |
| CC(C)NC(=O)N1CC[C@@](C)(N2CCc3c(-c4cnc(N)nc4)nc(N4CCOCC4)nc32)C1 [Example 394, (3R)-3-[4-(2-aminopyrimidin-5-yl)-2-(morpholin-4-yl)-5,6-dihydro-7H-pyrrolo[2,3-d]pyrimidin-7-yl]-3-methyl-N-(propan-2-yl)pyrrolidine-1-carboxamide] | 0.112 nM |  |
| C[C@]1(N2CCc3c(-c4cnc(N)nc4)nc(N4CCOCC4)nc32)CCN(C(=O)CN2CCC2)C1 [Example 325, 1-{(3S)-3-[4-(2-aminopyrimidin-5-yl)-2-(morpholin-4-yl)-5,6-dihydro-7H-pyrrolo[2,3-d]pyrimidin-7-yl]-3-methylpyrrolidin-1-yl}-2-(azetidin-1-yl)ethanone] | 0.058 nM |  |
| CC(C)(C)OC(=O)N1C[C@@H](N2CCc3c(-c4cnc(N)nc4)nc(N4CCOCC4)nc32)[C@@H](F)C1 [Example 408, tert-butyl (3R,4S)-3-[4-(2-aminopyrimidin-5-yl)-2-(morpholin-4-yl)-5,6-dihydro-7H-pyrrolo[2,3-d]pyrimidin-7-yl]-4-fluoropyrrolidine-1-carboxylate] |  | 1.08 nM |
| CC(=O)N1CC(N2CCc3c(-c4cnc(N)nc4)nc(N4CCOC[C@@H]4C)nc32)C1 [Example 451, 1-(3-{4-(2-aminopyrimidin-5-yl)-2-[(3S)-3-methylmorpholin-4-yl]-5,6-dihydro-7H-pyrrolo[2,3-d]pyrimidin-7-yl}azetidin-1-yl)ethanone] | 0.595 nM |  |
| C[C@@H]1COCCN1c1nc(-c2cnc(N)nc2)c2c(n1)N(C1(C)CCN(C(=O)OC(C)(C)C)C1)CC2 (stereo partly drawn) [Example 228] | 0.164 nM |  |
| C[C@]1(N2CCc3c(-c4cnc(N)nc4)nc(N4CCOCC4)nc32)CCN(C(=O)[C@H](N)CF)C1.Cl [Example 292, (2S)-2-amino-1-{(3S)-3-[4-(2-aminopyrimidin-5-yl)-2-(morpholin-4-yl)-5,6-dihydro-7H-pyrrolo[2,3-d]pyrimidin-7-yl]-3-methylpyrrolidin-1-yl}-3-fluoropropan-1-one hydrochloride] | <0.018 nM |  |
| CNC(=O)N1CC[C@@](C)(N2CCc3c(-c4cnc(N)nc4)nc(N4CCOC[C@@H]4C)nc32)C1 [Example 505, (3R)-3-{4-(2-aminopyrimidin-5-yl)-2-[(3S)-3-methylmorpholin-4-yl]-5,6-dihydro-7H-pyrrolo[2,3-d]pyrimidin-7-yl}-N,3-dimethylpyrrolidine-1-carboxamide] | 0.139 nM |  |
| C[C@]1(N2CCc3c(-c4cnc(N)nc4)nc(N4CCOCC4)nc32)CCN(CC(F)F)C1 [Example 421, 5-{7-[(3S)-1-(2,2-difluoroethyl)-3-methylpyrrolidin-3-yl]-2-(morpholin-4-yl)-6,7-dihydro-5H-pyrrolo[2,3-d]pyrimidin-4-yl}pyrimidin-2-amine] | 0.071 nM |  |
| CCCC(C)(C)N1CCc2c(-c3cnc(N)nc3)nc(N3CCOCC3)nc21 [Example 187] | 0.839 nM |  |
| CN(C)C(=O)COC(=O)N1CC(N2CCc3c(-c4cnc(N)nc4)nc(N4CCOCC4)nc32)C1 [Example 151] | 0.107 nM |  |
| CC1(C(=O)N2CC[C@](C)(N3CCc4c(-c5cnc(N)nc5)nc(N5CCOCC5)nc43)C2)CCCO1 (single isomer, unassigned) [Example 376] | 0.090 nM |  |
